In paper PMC8226672, “Trimethoxylated Halogenated Chalcones as Dual Inhibitors of MAO-B and BACE-1 for the Treatment of Neurodegenerative Disorders” (Pharmaceutics, 2021):
Converted amounts (≈) assume the structure as drawn. Read-outs that look alike come from different tables or passages of the source.

How the values were obtained:
[1] = Parallel artificial membrane permeability assay (PAMPA) for BBB permeability
Text: (§6) The CNS bioavailability of the molecules was confirmed by a parallel artificial membrane permeability assay (PAMPA) by Di et al. [61].

β-secretase (BACE-1) = molecular target: T1, β-secretase (BACE-1) (Homo sapiens, UniProt P56817); test: BACE-1 inhibition (β-secretase assay kit, fluorescence); type: biochemical; details: for remaining activity at 10 µM: read-out: Residual Activity (%) BACE-1; for IC50: reference compounds after preincubation with enzymes for 30 min
T1 construct: purchased
T1 sequence (P56817 46-501): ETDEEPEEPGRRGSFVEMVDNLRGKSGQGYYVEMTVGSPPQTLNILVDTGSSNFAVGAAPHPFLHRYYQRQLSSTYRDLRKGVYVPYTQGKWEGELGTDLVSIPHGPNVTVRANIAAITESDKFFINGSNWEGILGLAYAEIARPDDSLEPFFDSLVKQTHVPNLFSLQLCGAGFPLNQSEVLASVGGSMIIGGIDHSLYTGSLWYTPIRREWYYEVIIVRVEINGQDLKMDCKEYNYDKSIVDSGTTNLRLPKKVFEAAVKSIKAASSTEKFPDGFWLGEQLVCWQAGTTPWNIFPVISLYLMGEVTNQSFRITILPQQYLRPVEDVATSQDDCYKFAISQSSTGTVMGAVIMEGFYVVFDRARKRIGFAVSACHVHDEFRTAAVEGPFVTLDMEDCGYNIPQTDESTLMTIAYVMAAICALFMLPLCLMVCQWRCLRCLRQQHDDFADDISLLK
Method: (§1) MAO events were assessed with recombinant MAO-A and MAO-B, as well as the substrates kynuramine (0.06 mM) and benzylamine (0.3 mM). […] The IC50 value of CH5 for BACE-1 was also analyzed.
(§2) The inhibitory actions of the six molecules against MAO-A, MAO-B, and BACE-1 were first tested at 10 µM. Initially, the IC50 values of the compounds for MAOs were calculated.

MAO-B [2] = molecular target: T2, MAO-B (Homo sapiens, UniProt P27338); test: MAO-B inhibition (recombinant enzyme, benzylamine substrate); type: biochemical; details: for remaining activity at 10 µM: read-out: Residual Activity (%) MAO-B; for SI (selectivity index): for MAO-B as compared with MAO-A; for IC50: reference compounds after preincubation with enzymes for 30 min
T2 sequence (P27338 1-520): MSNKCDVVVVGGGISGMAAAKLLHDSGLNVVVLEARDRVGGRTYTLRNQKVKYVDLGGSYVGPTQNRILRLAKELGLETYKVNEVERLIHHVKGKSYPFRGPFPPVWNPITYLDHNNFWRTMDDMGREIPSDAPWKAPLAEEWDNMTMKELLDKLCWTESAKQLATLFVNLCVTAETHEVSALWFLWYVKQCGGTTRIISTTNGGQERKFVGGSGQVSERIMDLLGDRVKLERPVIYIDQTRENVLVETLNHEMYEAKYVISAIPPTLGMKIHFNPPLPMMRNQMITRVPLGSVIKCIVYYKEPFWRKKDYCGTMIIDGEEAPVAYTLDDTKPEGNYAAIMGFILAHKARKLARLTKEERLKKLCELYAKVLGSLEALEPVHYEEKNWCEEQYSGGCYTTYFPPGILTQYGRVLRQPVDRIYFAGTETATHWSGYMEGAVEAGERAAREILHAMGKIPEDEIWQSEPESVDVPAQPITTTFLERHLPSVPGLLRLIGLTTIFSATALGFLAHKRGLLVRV
Method: as §1, §2

recombinant MAO-A = molecular target: T3, recombinant MAO-A (Homo sapiens, UniProt P21397); test: MAO-A inhibition (recombinant enzyme, kynuramine substrate); type: biochemical; details: for remaining activity at 10 µM: read-out: Residual Activity (%) MAO-A; for IC50: reference compounds after preincubation with enzymes for 30 min
T3 sequence (P21397 1-527): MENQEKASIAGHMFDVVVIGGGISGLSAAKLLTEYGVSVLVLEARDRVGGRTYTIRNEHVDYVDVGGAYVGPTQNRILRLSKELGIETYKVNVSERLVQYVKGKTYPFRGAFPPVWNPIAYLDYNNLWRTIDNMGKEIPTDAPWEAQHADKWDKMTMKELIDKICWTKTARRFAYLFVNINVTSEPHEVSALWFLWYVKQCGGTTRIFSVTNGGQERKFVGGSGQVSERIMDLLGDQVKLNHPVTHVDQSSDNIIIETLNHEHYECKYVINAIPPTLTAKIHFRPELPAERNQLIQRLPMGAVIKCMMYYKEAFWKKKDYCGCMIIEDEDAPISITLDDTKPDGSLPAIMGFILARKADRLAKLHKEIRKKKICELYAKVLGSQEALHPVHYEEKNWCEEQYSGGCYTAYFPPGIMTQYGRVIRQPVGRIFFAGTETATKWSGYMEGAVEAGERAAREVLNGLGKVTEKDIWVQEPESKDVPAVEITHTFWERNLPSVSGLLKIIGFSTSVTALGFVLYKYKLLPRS
Method: as §1, §2

[3] = In vitro toxicity, MTT cell viability assay; type: cell-based; details: African green monkey; for IC50 at 48 h: Vero cells (African green monkey kidney cell line), 1 to 500 µg/mL; for viability at 48 h: Vero cells (kidney cell line), read-out: Percentage of viable cells
Method: (§3) The lead molecules CH4 and CH5 in the current series were further evaluated for their cytotoxic nature and ROS scavenging ability by the previously reported procedure (Supplementary Material).
An in vitro toxicity evaluation of CH4 and CH5 was carried out using an MTT assay. We used the African Green Monkey kidney cell line (Vero) as a valuable in vitro model for basal toxicity studies. To check the toxicity of the tested compounds, the Vero cell line was incubated with different concentrations of CH4 and CH5 (1 to 500 µg/mL), and the relative cell viability was measured after 48 h. […] The result of the cell viability assay was represented as a dose–response curve using the GraphPad Prism 6.0 software (USA). […] The reduction in cell number and also the membrane damage were very evident in treatment with CH4 and CH5 at IC50 and higher concentrations, as analyzed by phase-contrast microscope. These two experiments strongly support that CH4 and CH5 are one hundred times safer than the effective concentration of one micromolar (Figure 3C and Figure 4C). […]
1.2. Cytotoxicity Studies
The cell line of Vero (African green monkey kidney cells) was procured from NCCS, Pune and were grown in liquid medium (DMEM) containing, 100 ug/mL penicillin, 100 µg/mL streptomycin, and 10% Fetal Bovine Serum (FBS) and preserved under an atmosphere of 5% CO2 at 37 °C. The CH4 and CH5 sample was assayed for in vitro cytotoxicity by MTT assay using the cultured Vero cells. Briefly, the cultured Vero cells were produced by cell dissociation with trypsin (trypsinization), collectively in a 15 mL tube. At a density of 1×10^5 cells/mL cells/well (200 µL) the cells were plated for 24-48 hour at 37°C into 96-well tissue culture plate in DMEM medium containing 10 % FBS and 1% antibiotic solution. The wells were washed with sterile Phosphate buffered saline and further allowed to react with varying concen-trations of the CH4 and CH5 sample in a serum free DMEM medium. The samples were triplicated and the cells were kept for incubation at 37°C for 24 h in a humidified 5% CO2 incubator. MTT (20 µL of 5 mg/mL) was added in-to each well after the incubation and the cells were incubated for another 2–4 […]
(§4) h. The end point was determined by the purple precipitation which was clearly seen under an inverted microscope. […] The absorbance at 570 nm was measured using a micro plate reader (Thermo Fisher Scientific, USA). The IC50 value and the percentage cell viability was calculated using GraphPad Prism 8.0 software (USA). […]
(§5) DMEM medium and incubated at 37°C for 24 h. […] After the incubation period, the cells were treated with 100 µM/mL of 30% H2O2 and the production of ROS was evaluated immediately by fluorescence imaging system (ZOE, BIO-

MAO-B [4] = molecular target: T2, MAO-B; test: MAO-B inhibitor reversibility analysis by dialysis; details: for Relative activity, dialyzed (AD): after dialysis; for Relative activity, dialyzed (AD) / Relative activity, undialyzed (AU): CH4 1.68 µM, CH5 0.92 µM, lazabemide […], pargyline 0.28 µM; for Reversibility of MAO-B inhibition: dialysis; for Relative activity, undialyzed (AU): preincubation 30 min
Method: Reversibility patterns were analyzed by comparing the activities of dialyzed (AD) and undialyzed (AU) samples [58].
The relative activities for undialyzed (AU) and dialyzed (AD) samples were compared to determine the reversibility patterns.

MAO-B [5] = molecular target: T2, MAO-B; test: MAO-B kinetic study (Lineweaver–Burk and secondary plots); type: biochemical; details: for Type of MAO-B inhibition: Lineweaver–Burk plots; for Ki: secondary plots of slopes vs. inhibitor concentrations
Method: MAO events were assessed with recombinant MAO-A and MAO-B, as well as the substrates kynuramine (0.06 mM) and benzylamine (0.3 mM). The kinetics of MAO-B were analyzed under 2.4 × Km (i.e., 0.051 mM) of benzylamine. BACE-1 was measured using a β-secretase (BACE-1) assay kit at 320 nm for excitation and 405 nm for emission using a fluorescence spectrometer. […] The IC50 value of CH5 for BACE-1 was also analyzed.
The inhibitory actions of the six molecules against MAO-A, MAO-B, and BACE-1 were first tested at 10 µM. Initially, the IC50 values of the compounds for MAOs were calculated. At three inhibitory concentrations and five substrate concentrations, kinetic tests were conducted on CH4 and CH5, which inhibited MAO-B most potently.
Kinetic experiments were carried out at five concentrations of the substrates and three inhibitor concentrations.

Vero cells = test: ROS assay in H2O2-treated Vero cells; type: cell-based, African Green Monkey; details: Vero cells treated with H2O2; compounds at IC50 conc. (CH4 198.5 µg/mL, CH5 126.4 µg/mL)
Text: as §3
Our next attempt was to study the effect of CH4 and CH5 on inhibiting the excess reactive oxygen species (ROS) involved in the pathogenesis of neurodegenerative diseases. This ROS causes neuronal damage via oxidative damage in the brain during neurodegenerative diseases. We examined the intracellular ROS generation on Vero cell cultures after exposure to exogenous H2O2. […] Based on this observation, it is understood that the disruption of the balance between pro-oxidant and antioxidant levels can be retained by CH4 and CH5 at IC50 concentrations. […]
as §4, with “microscope. At the end, the medium along with MTT (220 µL) were used for the aspiration of the wells and later washed with 1X PBS (200 µL).” for “microscope.”
as §5

[6] = PAMPA
Text: as §6

Row | SMILES | Papp [1] [×10⁻⁶ cm/s] | remaining activity at 10 µM (β-secretase (BACE-1)) [%] | remaining activity at 10 µM (MAO-B [2]) [%] | remaining activity at 10 µM (recombinant MAO-A) [%] | IC50 at 48 h [3] [µg/mL] | viability at 48 h ([3]; up to 200 µg/mL) [%] | Relative activity, dialyzed (AD) (MAO-B [4]) [%] | Reversibility of MAO-B inhibition (MAO-B [4]) | Relative activity, undialyzed (AU) (MAO-B [4]) [%] | IC50 (β-secretase (BACE-1)) [µM] | Type of MAO-B inhibition (MAO-B [5]) | Ki (MAO-B [5]) [µM] | SI (selectivity index) (MAO-B [2]) | IC50 (MAO-B [2]) [µM] | IC50 (recombinant MAO-A) [µM] | Effect on ROS levels (Vero cells) | viability at 48 h ([3]; up to 100 times the effective concentration) [%] | Prediction (CNS permeability class) [6]
1 | COc1cc(OC)c(C(=O)/C=C/c2ccc(Cl)cc2)c(OC)c1 [CH1, (E)-3-(4-chlorophenyl)-1-(2,4,6-trimethoxyphenyl)prop-2-en-1-one] | 13.2 ± 0.33 | 61.3 ± 0.078 | 70.7 ± 2.16 | 90.1 ± 7.51 | – | – | – | – | – | – | – | – | – | – | – | – | – | –
2 | COc1cc(OC)c(C(=O)/C=C/c2ccc(Br)cc2)c(OC)c1 [CH2, (E)-3-(4-bromophenyl)-1-(2,4,6-trimethoxyphenyl)prop-2-en-1-one] | 14.1 ± 0.8 | 57.2 ± 0.46 | 84.3 ± 3 | 92.4 ± 1.1 | – | – | – | – | – | – | – | – | – | – | – | – | – | –
3 | COc1cc(OC)c(C(=O)/C=C/c2ccc(F)cc2)c(OC)c1 [CH3, (E)-3-(4-fluorophenyl)-1-(2,4,6-trimethoxyphenyl)prop-2-en-1-one] | 15.3 ± 0.71 | 59.7 ± 0.077 | 75.4 ± 0.27 | 94.9 ± 7.19 | – | – | – | – | – | – | – | – | – | – | – | – | – | –
4 | COc1ccc(C(=O)/C=C/c2ccc(Cl)cc2)c(OC)c1OC [CH4, (E)-3-(4-chlorophenyl)-1-(2,3,4-trimethoxyphenyl)prop-2-en-1-one] | 14.6 ± 0.26 | 54.3 ± 2.2 | – | 63.7 ± 1.02 | 198 (≈ 596 µM) | > 90 | 96.9 | reversible inhibitors | 30.9 | 13.6 ± 0.094 | competitive inhibitors | 0.68 ± 0.17 | 15.1 | 0.84 ± 0.025 | 12.7 ± 0.23 | decrease in ROS levels | – | –
5 | COc1ccc(C(=O)/C=C/c2ccc(Br)cc2)c(OC)c1OC [CH5, (E)-3-(4-bromophenyl)-1-(2,3,4-trimethoxyphenyl)prop-2-en-1-one] | 15.7 ± 0.22 | 64.3 ± 0.74 | – | 66.7 ± 3.96 | 126 (≈ 335 µM) | – | 73.8 | reversible inhibitors | 37.2 | 19.8 ± 0.12 | competitive inhibitors | 0.31 ± 0.014 | 31.3 | 0.46 ± 0.12 | 14.4 ± 1.1 | decrease in ROS levels | > 90 | –
6 | COc1ccc(C(=O)/C=C/c2ccc(F)cc2)c(OC)c1OC [CH6, (E)-3-(4-fluorophenyl)-1-(2,3,4-trimethoxyphenyl)prop-2-en-1-one] | 15.2 ± 0.26 | 66.7 ± 0.45 | 19.6 ± 2.17 | 92.1 ± 0.75 | – | – | – | – | – | – | – | – | – | 4.17 ± 0.23 | – | – | – | –
7 | CN1C(C(=O)Nc2ccccn2)=C(O)c2ccccc2S1(=O)=O [Piroxicam] | – | – | – | – | – | – | – | – | – | – | – | – | – | – | – | – | – | CNS+/−
